We go through one molecule from patent publication US20240019418A1, “RECEPTORS FOR CYCLIC DINUCLEOTIDES AND METHODS FOR SCREENING AGONISTS OR INHIBITORS THEREOF” (GUANGZHOU WINKEY TECHNOLOGY CO., LTD., priority 2017, published 2024).

For the test, the target named is T1, subtype M of human STING (Homo sapiens, UniProt Q86WV6).
T1 construct: expressed in transfected cells
Briefly: type 1 interferon promoter luciferase reporter in HEK293T cell lines stably expressing subtype M of human STING. It is filed as cell-based. Set-up: dose or concentration left out as unconfirmed. Conditions: c-di-AMP final concentration in complete medium, 16 hour. Here is the method:
After two weeks, drug resistance strains occurred.
Incubate for 20 min at room temperature. […] After 24 hours, the supernatants were removed.
Background: In a reporter assay the amount or activity of a reporter protein is the signal.

T1 sequence (Q86WV6 120-379): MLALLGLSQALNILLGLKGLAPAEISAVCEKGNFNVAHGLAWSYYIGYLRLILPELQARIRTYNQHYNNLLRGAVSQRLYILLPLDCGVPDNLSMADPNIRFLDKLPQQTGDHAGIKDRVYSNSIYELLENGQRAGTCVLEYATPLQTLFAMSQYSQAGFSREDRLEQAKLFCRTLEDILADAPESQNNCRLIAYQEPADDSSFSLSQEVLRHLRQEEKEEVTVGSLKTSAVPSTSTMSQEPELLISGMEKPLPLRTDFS

Regarding `Nc1ncnc2c1ncn2[C@@H]1O[C@@H]2COP(=O)(O)O[C@H]3[C@@H](O)[C@H](n4cnc5c(N)ncnc54)O[C@@H]3COP(=O)(O)O[C@H]2[C@H]1O` [c-di-AMP], the “luciferase activity compared with control group in which only transfection was performed” value was “significantly increased”.
